Reference: patent publication US20120328569A1, “INHIBITORS OF HEPATITIS C VIRUS NS5B POLYMERASE” (priority 2010, published 2012)

System: HCV genotype 1b replicon
Assay: HCV replicon assay, cell ELISA with antibody to replicon-encoded NS3/4A (genotype 1b replicon)
Format: cell-based, hepatitis C virus
Details: HCV genotype 1b replicon; 96 hours incubation; NS3/4A cell ELISA; read-out: 1b IC50
Procedure: The HCV NS5B inhibitory activity of the present compounds may be tested using assays known in the art. The HCV NS5B polymerase inhibitors described herein have activities in a genotype 1b replicon assay as described in the Examples. The assay is performed by incubating a replicon harboring cell-line in the presence of inhibitor for a set period of time and measuring the effect of the inhibitor on HCV replicon replication either directly by quantifying replicon RNA level, or indirectly by measuring enzymatic activity of a co-encoded reporter enzyme such as luciferase or β-lactamase. By performing a series of such measurements at different inhibitor concentrations, the effective inhibitory concentration of the inhibitor (EC50 or EC90) is determined. See Jan M. Vrolijk et al., A replicons-based bioassay for the measurement of interferons in patients with chronic hepatitis C, 110 J. VIROLOGICAL METHODS 201 (2003). Such assays may also be run in an automated format for high through-put screening. See Paul Zuck et al., A cell-based β-lactamase reporter gene assay for the identification of inhibitors of hepatitis C virus replication, 334 ANALYTICAL BIOCHEMISTRY 344 (2004).
Measurement of inhibition by compounds was performed using the HCV replicon system. Several different replicons encoding different HCV genotypes or mutations were used. In addition, potency measurements were made using different formats of the replicon assay, including different ways of measurements and different plating formats. See Jan M. Vrolijk et al., A replicons-based bioassay for the measurement of interferons in patients with chronic hepatitis C, 110 J. VIROLOGICAL METHODS 201 (2003); Steven S. Carroll et al., Inhibition of Hepatitis C Virus RNA Replication by 2′-Modified Nucleoside Analogs, 278(14) J. BIOLOGICAL CHEMISTRY 11979 (2003). However, the underlying principles are common to all of these determinations, and are outlined below.
Stable neomycin phosphotransferase encoding replicons-harboring cell lines were used, so all cell lines were maintained under G418 selection prior to the assay. Potency was determined using a cell ELISA assay with an antibody to the replicons encoded NS3/4a protease. See Caterina Trozzi et al., In Vitro Selection and Characterization of Hepatitis C Virus Serine Protease Variants Resistant to an Active-Site Peptide Inhibitor, 77(6) J. Virol. 3669 (2003). To initiate an assay, replicon cells were plated in the presence of a dilution series of test compound in the absence of G418. Typically, the assays were performed in a 96-well plate formate for manual operation, or a 384-well plate format for automated assay. Replicon cells and compound were incubated for 96 hours. At the end of the assay, cells were washed free of media and compound, and the cells were then lysed. RNA was quantified indirectly through detection of replicon-encoded NS3/4A protein levels, through an ELISA-based assay with an antibody specific for NS3/4A. IC50 determinations were calculated as a percentage of a DMSO control by fitting the data to a four-parameter fit function and the data obtained is provided in the table below.

SMILES	IC50 [nM]
CCOP(=O)(O)CCCN(c1cc2oc(-c3ccc(F)cc3)c(C(=O)NC)c2cc1-c1ccc(OC)c(-c2nc3c(F)cccc3o2)c1)S(C)(=O)=O [Example 844]	3.88

Same assay, conditions: Hepatitis C virus, 96 h, read-out: 1b IC50(nM), HCV genotype 1b replicon; 96 hours incubation; NS3/4A cell ELISA

SMILES	IC50 [nM]
CNC(=O)c1c(-c2ccc(F)cc2)oc2cc(N(CCC(C)(C)O)S(C)(=O)=O)c(-c3cccc(-c4nc5ncccc5o4)c3)cc12 [Example 859]	2.1
CNC(=O)c1c(-c2ccc(F)cc2)oc2cc(N(CC(O)CC#N)S(C)(=O)=O)c(-c3ccc(OC)c(-c4nc5c(F)cc(F)cc5o4)c3)cc12 (centres unmarked) [Example 819]	8.3
CNC(=O)c1c(-c2ccc(F)cc2)oc2cc(N(CCC(C)(C)F)S(C)(=O)=O)c(-c3ccc(OC)c(-c4nc5c(F)cccc5o4)c3)cc12 [Example 796]	14
CNC(=O)c1c(-c2ccc(F)cc2)oc2cc(N(C)S(C)(=O)=O)c(-c3cc(F)cc(-c4nc5ncc(F)cc5o4)c3)cc12 [Example 862]	1.3
CNC(=O)c1c(-c2ccc(F)cc2)oc2cc(N(C3CC(C#N)C3)S(C)(=O)=O)c(-c3cccc(-c4nc5ncccc5o4)c3)cc12 (centres unmarked) [Example 739]	2.17
CNC(=O)c1c(-c2ccc(F)cc2)oc2cc(N(CC3CCOC3)S(C)(=O)=O)c(-c3ccc(OC)c(-c4nc5c(F)cc(F)cc5o4)c3)cc12 (centres unmarked) [Example 729]	3.3
CNC(=O)c1c(-c2ccc(F)cc2)oc2cc(N(CC3CCS(=O)(=O)C3)S(C)(=O)=O)c(-c3ccc(OC)c(-c4nc5c(F)cccc5o4)c3)cc12 (centres unmarked) [Example 717]	2.84
CNC(=O)c1c(-c2ccc(F)cc2)oc2cc(N(C(CO)CO)S(C)(=O)=O)c(-c3ccc(OC)c(-c4nc5c(F)cccc5o4)c3)cc12 [Example 782]	5.41
CNC(=O)c1c(-c2ccc(F)cc2)oc2cc(N(C)S(C)(=O)=O)c(-c3cc4c(c(-c5nc6c(F)cccc6o5)c3)OCCO4)cc12 [Example 436]	4.37
CNC(=O)c1c(-c2ccc(F)cc2)oc2cc(N(CC3CC3)S(C)(=O)=O)c(-c3ccc(OC)c(-c4nc5c(F)cc(F)cc5o4)c3)cc12 [Example 705]	15.6
CNC(=O)c1c(-c2ccc(F)cc2)oc2cc(N(C)S(C)(=O)=O)c(-c3cc(C#N)cc(-c4cc5ccccc5[nH]4)c3)cc12 [Example 558]	5.81
CNC(=O)c1c(-c2ccc(F)cc2)oc2cc(N(CCCF)S(C)(=O)=O)c(-c3cccc(-c4nc5ncccc5o4)c3)cc12 [Example 868]	1.3

Same assay, conditions: Hepatitis C virus, 96 h, read-out: Replicon 1b IC50 (nM), HCV genotype 1b replicon cells, 96 hours incubation, NS3/4A ELISA readout

SMILES	IC50 [nM]
CNC(=O)c1c(-c2ccc(F)cc2)oc2cc(N(C)S(C)(=O)=O)c(-c3cccc(-c4ccc5cccnc5c4)c3)cc12 [Example 353]	4.2
CNC(=O)c1c(-c2ccc(F)cc2)oc2cc(N(CCCN)S(C)(=O)=O)c(-c3cccc(-c4nc5ncccc5o4)c3)cc12 [Compound 396]	18.2
CNC(=O)c1c(-c2ccc(F)cc2)oc2cc(N(C)S(C)(=O)=O)c(-c3ccc(O)cc3)cc12 [Example 113, 2-(4-fluorophenyl)-5-(4-hydroxyphenyl)-N-methyl-6-[methyl(methylsulfonyl)amino]-1-benzofuran-3-carboxamide]	74
CNC(=O)c1c(-c2ccc(F)cc2)oc2cc(N(C)S(C)(=O)=O)c(-c3ccc(F)c(-c4nc5cncnc5[nH]4)c3)cc12 [Example 342]	5.1
CNC(=O)c1c(-c2ccc(F)cc2)oc2cc(N(C)S(C)(=O)=O)c(-c3ccc(OC)c(-c4nc5cccc(F)c5o4)c3)cc12 [Example 186]	2
CNC(=O)c1c(-c2ccc(F)cc2)oc2cc(N(C)S(C)(=O)=O)c(-c3cccc(-c4cc5ccccc5[nH]4)c3)cc12 [Example 366, 5-(3-(1H-indol-2-yl)phenyl)-2-(4-fluorophenyl)-N-methyl-6-(N-methylmethylsulfonamido)benzofuran-3-carboxamide]	4.2
CNC(=O)c1c(-c2ccc(F)cc2)oc2cc(N(C)S(C)(=O)=O)c(-c3ccc(F)c(-c4nc5cccnc5o4)c3)cc12 [Example 221]	1.7
CNC(=O)c1c(-c2ccc(F)cc2)oc2cc(N(CCC(C)C)S(C)(=O)=O)c(-c3ccccc3)cc12 [Example 18, 2-(4-fluorophenyl)-N-methyl-6-[(3-methylbutyl) (methylsulfonyl)amino]-5-phenyl-1-benzofuran-3-carboxamide]	41
CNC(=O)c1c(-c2ccc(F)cc2)oc2cc(N(C)S(C)(=O)=O)c(-c3cccc(-c4nc5c(C)cccc5s4)c3)cc12 [Example 146, 2-(4-fluorophenyl)-N-methyl-5-[3-(4-methyl-1,3-benzothiazol-2-yl)phenyl]-6-[methyl (methylsulfonyl)amino]-1-benzofuran-3-carboxamide]	15
CNC(=O)c1c(-c2ccc(F)cc2)oc2cc(N(C)S(C)(=O)=O)c(-c3cccc(CN)c3)cc12 [Example 101, 5-[3-(aminomethyl)phenyl]-2-(4-fluorophenyl)-N-methyl-6-[methyl(methylsulfonyl)amino]-1-benzofuran-3-carboxamide]	505
CNC(=O)c1c(-c2ccc(F)cc2)oc2cc(N(CCC=C(C)C)S(C)(=O)=O)c(-c3ccccc3)cc12 [Example 40, 2-(4-fluorophenyl)-N-methyl-6-[(4-methylpent-3-en-1-yl)(methylsulfonyl)amino]-5-phenyl-1-benzofuran-3-carboxamide]	90
CNC(=O)c1c(-c2ccc(F)cc2)oc2cc(N(C)S(C)(=O)=O)c(-c3ccc(F)c(-c4nc5cccnc5s4)c3)cc12 [Example 246]	3.6
CCCCCCN(c1cc2oc(-c3ccc(F)cc3)c(C(=O)NC)c2cc1-c1ccccc1)S(C)(=O)=O [Example 24, 2-(4-fluorophenyl)-6-[hexyl (methylsulfonyl)amino]-N-methyl-5-phenyl-1-benzofuran-3-carboxamide]	182
CNC(=O)c1c(-c2ccc(F)cc2)oc2cc(N(C)S(C)(=O)=O)c(-c3cccc(-c4nnc(-c5ccccc5)o4)c3)cc12 [Example 137, 2-(4-fluorophenyl)-N-methyl-6-[methyl (methylsulfonyl)amino]-5-[3-(5-phenyl-1,3,4-oxadiazol-2-yl)phenyl]-1-benzofuran-3-carboxamide]	6
CNC(=O)c1c(-c2ccc(F)cc2)oc2cc(N(C)S(C)(=O)=O)c(-c3cccc(-c4nc5nccnc5[nH]4)c3)cc12 [Example 336]	2.7
CNC(=O)c1c(-c2ccc(F)cc2)oc2cc(N(C)S(C)(=O)=O)c(-c3cc(F)cc(-c4nc5cccc(Cl)c5o4)c3)cc12 [Example 164]	16.5
CNC(=O)c1c(-c2ccc(F)cc2)oc2cc(N(C)S(C)(=O)=O)c(-c3cccc(-c4nc5cc(F)ccc5[nH]4)c3)cc12 [Example 150, 5-[3-(5-fluoro-1H-benzimidazol-2-yl)phenyl]-2-(4-fluorophenyl)-N-methyl-6-[methyl(methylsulfonyl)amino]-1-benzofuran-3-carboxamide]	1
CNC(=O)c1c(-c2ccc(F)cc2)oc2cc(N(C)S(C)(=O)=O)c(-c3cccc(-c4nc5ccc(CN)cc5s4)c3)cc12 [Example 297, 5-(3-(6-(aminomethyl)benzo[d]thiazol-2-yl)phenyl)-2-(4-fluorophenyl)-N-methyl-6-(N-methylmethylsulfonamido)benzofuran-3-carboxamide]	20.5
CNC(=O)c1c(-c2ccc(F)cc2)oc2cc(N(C)S(C)(=O)=O)c(-c3cc(F)cc(-c4nc5cc(Cl)cnc5o4)c3)cc12 [Example 219]	3
CNC(=O)c1c(-c2ccc(F)cc2)oc2cc(N(C)S(C)(=O)=O)c(-c3cc(F)cc(-c4nc5ccccc5s4)c3)cc12 [Example 289]	5.4
CNC(=O)c1c(-c2ccc(F)cc2)oc2cc(N(CCCc3ccccc3)S(C)(=O)=O)c(-c3ccccc3)cc12 [Example 6, 2-(4-fluorophenyl)-N-methyl-6-[(methylsulfonyl) (3-phenylpropyl)amino]-5-phenyl-1-benzofuran-3-carboxamide]	118

Same assay, conditions: read-out: 1b IC50; HCV genotype 1b replicon; 96 hours incubation; NS3/4A cell ELISA

SMILES	IC50 [nM]
CNC(=O)c1c(-c2ccc(F)cc2)oc2cc(N(CC(O)Cn3ccnc3)S(C)(=O)=O)c(-c3ccc(OC)c(-c4nc5c(F)cccc5o4)c3)cc12 (centres unmarked) [Example 824]	17.7
